Laboratory results published in patent US11484032B2, “Compositions for inhibition of insect sensing” (Vanderbilt University, priority 2011, dated 2022).

Legend:
Orco 28 + Orco [1] = molecular target: T1, Orco 28 + Orco (Anopheles gambiae, UniProt Q7QCC7); assay: Orco 28 + Orco: agonist / antagonist / potentiator screen (Table 1); type: cell-based; details: for Orco 28 + Orco Potentiator % increase: potentiator mode
T1 construct: expressed in transfected cells
T1 sequence (Q7QCC7 1-478): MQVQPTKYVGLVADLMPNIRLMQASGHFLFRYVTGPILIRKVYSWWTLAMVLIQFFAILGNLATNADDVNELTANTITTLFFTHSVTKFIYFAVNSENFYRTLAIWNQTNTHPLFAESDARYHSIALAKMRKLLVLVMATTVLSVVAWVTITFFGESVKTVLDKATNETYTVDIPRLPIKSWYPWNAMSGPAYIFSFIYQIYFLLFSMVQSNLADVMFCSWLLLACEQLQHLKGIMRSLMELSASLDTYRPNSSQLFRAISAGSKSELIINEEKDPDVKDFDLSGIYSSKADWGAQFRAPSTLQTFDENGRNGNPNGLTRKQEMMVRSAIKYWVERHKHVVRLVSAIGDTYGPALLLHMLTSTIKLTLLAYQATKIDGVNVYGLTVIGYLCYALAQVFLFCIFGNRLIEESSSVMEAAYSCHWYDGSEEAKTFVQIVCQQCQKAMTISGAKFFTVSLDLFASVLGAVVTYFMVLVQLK
Description: (§1) The activity against insect odorant sensory receptors was evaluated for various disclosed compounds, and the data were collected in Table 1.

Orco 28 + Orco [2] = molecular target: T1, Orco 28 + Orco; assay: Ca2+ imaging, cells expressing Orco + OR28 (Table 1 head "Orco 28 + Orco"); type: cell-based; details: for Orco 28 + Orco Potentiator % increase: potentiator mode
Description: as §1

AgOrco+AgOR65 = molecular target: T2, AgOrco+AgOR65 (Anopheles gambiae, UniProt Q7QCC7); assay: Ca2+ imaging, HEK cells expressing AgOrco+AgOR65; type: cell-based; details: for EC50: heteromeric OR channels AgOrco+AgOR65, read-out: EC50
T2 construct: expressed in transfected cells
T2 sequence (Q7QCC7 1-478): T1 sequence (Q7QCC7 1-478)
Excerpt: (§2) For transient transfections, ORs were cloned into pCl (Promega) and transfected into Flp-In™ T-REx™293 cell lines (Invitrogen) with Fu GENE6 (Roche). For the creation of stable cell lines, a cell culture expression vector capable of expressing Orco in conjunction with a conventional OR, pcDNA5/FRT/TO (Invitrogen) was modified to create two individual expression cassettes each under the control of a separate CMV/Tet02 promoter and a BGH poly-adenylation signal. Cells (as above) were transfected with the modified pcDNA5 plasmid along with POG44 (a Flp recombinase expression plasmid) to facilitate site-specific recombination. Stable cell lines were selected using Hygromycin B (Invitrogen). Cells were maintained in DMEM (Invitrogen) supplemented with 10% Tetracycline-free FBS (HyClone) and 15 ng/ml Blasticidin. For fluorometric Ca2+ measurements, stable lines expressing ORs of interest were seeded at 20,000 cells/well in black wall, poly-lysine coated 384-well cell culture plates (Greiner) and treated with […] tetracycline (Sigma) overnight to induce OR expression. Cells were dye-loaded with 1.8 uM Fluo-4 AM (Molecular Probes), 2.5 mM Probenecid (Molecular Probes) in assay buffer (20 mM HEPES, IX HBSS) for 45 minutes at 37° C. in 5% CO2 prior to each assay. Ca^2+ mobilization was assayed in an FDSS6000 (Hamamatsu). Baseline readings were taken for 20 s before automated addition of compound previously diluted in DMSO and assay buffer. Ratios were described as Maximum/Minimum response and each response was normalized to the maximum responder.
For VUAA0, a single methyl from the para position of the aniline ring (compound VUAA0, FIG. 44) in the VUAA1 structure was removed. […] In VUAA0.5, unsaturation was introduced at the para position of the aniline ring (VUAA0.5, FIG. 44). […] In VUAA2, the ethyl group of the aniline ring in VUAA1 was replaced with an isopropyl group (VUAA2, FIG. 44).

[3] = system: An. gambiae early 4th instar larvae; assay: Larval mosquito movement assay (Daniovision-Ethovision); type: in vivo, Anopheles gambiae; details: for larval behavioral (movement) response: compared with DMSO controls or VUAA1
Description: Next, the agonist activity of the VUAA compound class was tested to establish the involvement of AgORs in mediating larval ortho and klinokinesis in response to a series of semiochemicals using larval-stage An. gambiae mosquitoes. Mosquito larvae are aquatic, thus compounds can be delivered to individual early 4th instar larvae regardless of volatility. The assay currently utilizes 6-well plates and the Daniovision-Ethovision platform (Noldus Inc.) to simultaneously record and analyze 6 larvae, thereby providing modest rates of throughput and a high degree of reproducibility. In these assays, larval movements are automatically quantified over 5-minute period and control larvae consistently move the same number of times in the presence or absence of 0.1% DMSO (p=0.80, n=31) (FIGS. 42-43). Furthermore, the effects of the widely-used synthetic insect repellent N, N-diethyl-meta-toluamide (DEET) was tested and DEET was also observed to increase larval movements at and above a threshold concentration of 5×10^−4M (p=0.013, n=27) (FIGS. 42-43).

AgORco+AgOR10 = molecular target: T3, AgORco+AgOR10 (Anopheles gambiae, UniProt Q7QCC7); assay: Fluo-4 Ca2+ imaging, HEK293 cells expressing Orco+AgOR10; type: cell-based; parameters: Orco 10 + Orco Angatonist % Reduction / Orco 10 + Orco Agonist % of control: concentration or dose not given beside the values; details: for Orco 10 + Orco Potentiator % increase: potentiator mode
T3 construct: expressed in transfected cells
T3 sequence (Q7QCC7 1-478): T1 sequence (Q7QCC7 1-478)
Excerpt: as §2
As part of an ongoing, cell based calcium imaging screen for novel small-molecule modulators of AgORs that might disrupt olfactory-driven mosquito behaviors (Rinker et al manuscript in preparation), the inventors identified a number of compounds that activated AgOR10+AgORco-expressing human embryonic kidney (HEK293) cells. One of these compounds, (FIG. 3 A) denoted here as VUAA1, elicited activity consistent with allosteric agonism and was pursued for its novel properties. The identity of VUAA1 was verified using high-resolution mass spectrometry (HRMS) as well as ^1H and ^13C NMR. […] As AgORco was the common element among these functional responses, the inventors postulated that VUAA1 was a potential AgORco agonist.

AgORco+AgOR48 = molecular target: T4, AgORco+AgOR48 (Anopheles gambiae, UniProt Q7QCC7); assay: Ca2+ imaging, HEK cells expressing AgORco+AgOR48; type: cell-based; details: AgORco co-expressed with AgOR48; read-out: EC50
T4 construct: expressed in transfected cells
T4 sequence (Q7QCC7 1-478): T1 sequence (Q7QCC7 1-478)
Excerpt: as §2
The ability of VUAA1 and its analogs to agonize representative ORco proteins from dipteran (Anopheles gambiae, AgORco), lepidopteran (Heliothis virescens, HvORco) and hymenopteran (Harpegnathos saltator, HsORco) orders was tested. […] Furthermore, the hierarchy of VUAA series potency was the same, irrespective of whether AgORco was co-expressed with AgOR65 or AgOR48 tuning ORs (FIG. 45). Without wishing to be bound by a particular theory, odorant ligands are thought to activate the complex via interaction with the tuning ORx and thereby affect ORco/ORx channel properties. […] These findings indicate VUAA-class OR co-modulators are viable compounds for further development as broad-spectrum insect control strategies, and VUAA4 can provide an advance in the pharmacological profile of VUAA-based compounds.

`CC(=O)n1ccc2ccc(C(=O)CSc3nnc(-c4cccnc4)n3C)cc21` was tested, and the “Orco 28 + Orco Antagonist % Reduction” value (Orco 28 + Orco [1]; antagonist mode) was 13.76%.

For `Cc1ccc(NC(=O)CSc2nnc(-c3cccnc3)n2C)c(C)c1`, the “Orco 28 + Orco Potentiator % increase” value (Orco 28 + Orco [1]) was 12.63%.

With `O=C(CSc1nnc(-c2cccnc2)n1CCc1ccccc1)NCc1ccccc1` the “Orco 28 + Orco Potentiator % increase” value (Orco 28 + Orco [2]) was 15.9%.

For `CCn1c(SCC(=O)Nc2ccc(C(C)C)cc2)nnc1-c1cccnc1` [VUAA2, 2-((4-ethyl-5-(pyridin-3-yl)-4H-1,2,4-triazol-3-yl)thio)-N-(4-isopropylphenyl)acetamide], the EC50 (AgOrco+AgOR65) was 9.2 µM and the “larval behavioral (movement) response” value [3] was “not observed to elicit larval responses greater than VUAA1”.

With `O=C(CSc1nnc(-c2cccnc2)n1Cc1ccccc1)Nc1ccc(F)cc1` the “Orco 28 + Orco Potentiator % increase” value (Orco 28 + Orco [2]) was 16.12%.

In the case of `CCc1cccc(CC)c1-n1c(SCn2nnc3ccccc3c2=O)nnc1-c1cccnc1`, the “Orco 10 + Orco Angatonist % Reduction” value (AgORco+AgOR10; Orco 10 + Orco, antagonist mode) is reported as 25.00% and the “Orco 28 + Orco Antagonist % Reduction” value (Orco 28 + Orco [2]; antagonist mode) is reported as 22.91%.

With `NC(=O)CSc1nnc(-c2cccnc2)n1-c1ccccc1` the “Orco 28 + Orco Potentiator % increase” value (Orco 28 + Orco [2]) was 15.18%.

With `CC(C)c1ccc(NC(=O)CSc2nnc(-c3ccncc3)n2C2CC2)cc1` [VUAA4, 2-((4-cyclopropyl-5-(pyridin-4-yl)-4H-1,2,4-triazol-3-yl)thio)-N-(4-isopropylphenyl)acetamide] the “improvement in agonist potency compared to VUAA1” value (AgOrco+AgOR65; AgOrco+AgOR65) was 10 fold, the “maximum response relative to earlier VUAA compounds” value (AgOrco+AgOR65; AgOrco+AgOR65) was “additional improvement in the maximum response when compared to VUAA1” and the EC50 (AgOrco+AgOR65) was 2.1 µM. For the same molecule, the “larval movement at the highest concentration” value ([3]; 10^−5M) was “Reduced larval movement”, the larval movement response ([3]; 10^−8M) was “absence of response” and the “larval behavioral (movement) response” value [3] was “higher levels of movement”. The “lower response threshold compared to VUAA1” value ([3]; in vivo) was 5 fold, the threshold concentration for increased larval movement ([3]; movements over 5-minute period) was 1 nM and the EC50 (AgORco+AgOR48) was 1.7 µM.

`CCn1c(SCC(=O)Nc2ccc(C)cc2)nnc1-c1cccnc1` [VUAA0, 2-((4-ethyl-5-(pyridin-3-yl)-4H-1,2,4-triazol-3-yl)thio)-N-(p-tolyl)acetamide] was tested, and the EC50 (AgOrco+AgOR65) was 3400 µM and the “larval behavioral (movement) response” value [3] was “lower”.

With `CCOc1ccccc1-n1c(SCC(N)=O)nnc1-c1cccnc1` the “Orco 28 + Orco Potentiator % increase” value (Orco 28 + Orco [2]) was 14.71%.

With `CCn1c(SCC(=O)C(C)(C)C)nnc1-c1cccnc1` the “Orco 10 + Orco Potentiator % increase” value (AgORco+AgOR10) was 12.1% and the “Orco 28 + Orco Potentiator % increase” value (Orco 28 + Orco [1]) was 17.24%.

`CCn1c(SCc2nc3ccccc3[nH]2)nnc1-c1cccnc1` was tested, and the “Orco 10 + Orco Potentiator % increase” value (AgORco+AgOR10) was 7.5% and the “Orco 28 + Orco Potentiator % increase” value (Orco 28 + Orco [1]) was 15.1%.
